Test results published in doi:10.1101/761585v1, “A simple method to determine the elimination half-life of drugs displaying noncumulative toxicity” (bioRxiv, 2019).
Several values for one entry are separate records, joined by “and”; a condition that tells them apart may be missing. Identical values can stand only once.

Assays:
BALB/c mice [1] = assay: Acute toxicity, single intraperitoneal dose, 5-day survival; format: in vivo, mouse; settings: highest single intraperitoneal dose causing no mortality in BALB/c mice observed for 5 days
Experimental: Acute toxicity comprises the lethal effects of a single dose of a drug, rather than the combined lethal effects of multiple doses of a drug. BALB/c mice (6-8 weeks, 20 g) were injected intraperitoneally with varying doses of Ω76 and Pexiganan, at 2-fold concentration increments. 5 mice per concentration cohort were used. […] Mice treated with both Ω76 and Pexiganan display mortality that increases in a dose-dependent manner. […] However, for TOXHL, determining the maximum nonlethal dose (MND) rather than the LD50 is more important. […] Here, the MND values for Ω76 and Pexiganan are […] (Figure 1A, shown in arrows).
Figure 1. All experiments required to determine the elimination half-life using TOXHL. BALB/c mice (6-8 weeks, 20 g) were used for all experiments. (A) Acute toxicity experiments to determine survival vs. concentration of drug injected intraperitoneally. Determining the maximum nonlethal dose (MND), which is the highest concentration of a drug that causes no mortality, is essential for later noncumulative toxicity experiments. Here, the MND for Pexiganan is 32 mg/kg (blue arrow), and the MND for Ω76 is 64 mg/kg (red arrow). (B) Multi-dose (non)cumulative toxicity determination experiments. Here, mice were intraperitoneally injected with 11 doses of drug (at the MND concentration), at 12 hour intervals over the course of 5 days. […]

[2] = Solubility of peptide stocks in saline vs PBS; format: physicochemical; settings: 20 mg/mL stocks prepared in physiological saline (0.8% NaCl)
Experimental: For all experiments described in this work, BALB/c mice (6-8 weeks, 20 g) were housed at the Central Animal Facility (CAF, IISc) and fed ad libitum with pellet feed and water. All animal experiments were approved by the Institutional Animal Ethics Committee, IISc (Project No. CAF/Ethics/550/2017). A detailed description of all methods used is provided in the results section. However, it should be noted that 20 mg/mL stocks for both Ω76 and Pexiganan were prepared in physiological saline (0.8% NaCl) and stored at −80 °C. […] These stocks were diluted in saline to obtain the concentration needed for the specific experiment. All intraperitoneal injections were 200 μL in volume, as larger volumes could alter peritoneal elimination kinetics.

BALB/c mice [3] = assay: Multi-dose (non)cumulative toxicity, 11 doses at the MND at 12 hour intervals; format: in vivo, mouse
Experimental: Figure 1. All experiments required to determine the elimination half-life using TOXHL. BALB/c mice (6-8 weeks, 20 g) were used for all experiments. (A) Acute toxicity experiments to determine survival vs. concentration of drug injected intraperitoneally. Determining the maximum nonlethal dose (MND), which is the highest concentration of a drug that causes no mortality, is essential for later noncumulative toxicity experiments. Here, the MND for Pexiganan is 32 mg/kg (blue arrow), and the MND for Ω76 is 64 mg/kg (red arrow). (B) Multi-dose (non)cumulative toxicity determination experiments. Here, mice were intraperitoneally injected with 11 doses of drug (at the MND concentration), at 12 hour intervals over the course of 5 days. All mice treated with Pexiganan died, indicating cumulative toxicity. All mice treated with Ω76 survived, indicating noncumulative toxicity. The difference between the survival outcomes of the Ω76 and Pexiganan cohorts are statistically significant (p=7e-3, Fisher’s test). […] 5 doses at the MND were injected intraperitoneally at Δt of 15, 7.5 and 3 minutes. 67% survival (33% mortality) was observed a Δt = 3 minutes (ΔtM, highlighted in yellow). […] Note that a separate set of similar experiments was described in our previous work[19], but these experiments were only used to assess the toxicity of Ω76.
Cumulative toxicity comprises the lethal effects of multiple doses of drug when injected intraperitoneally at MND concentrations. 10 BALB/c mice (6-8 weeks, 20 g) were treated with 11 doses of Pexiganan, administered at the MND (32 mg/kg) at 12 hour intervals, over the course of 5 days. Despite Pexiganan never exceeding the MND concentration, 100% mortality was observed. […] However, this damage is not reversed within the dosing interval timespan (12 hours), and additional doses only serve to incrementally increase the total damage caused to mice, until a threshold is reached and death occurs.
Figure 2. Peritonea of BALB/c mice (6-8 weeks, 20 g) treated with Ω76 and Pexiganan for (non)cumulative toxicity experiments. […]

Substance: Pexiganan
- maximum nonlethal dose (MND) (BALB/c mice [1]): 64 mg/kg and 32 mg/kg
- solubility in phosphate buffered saline (PBS) compared with physiological saline [2]: poorer solubility
- survival outcome after 11 doses at the MND (BALB/c mice [3]; 10 BALB/c mice, 11 intraperitoneal doses at the MND (Pexiganan 32 mg/kg, Ω76 64 mg/kg), 12 hour intervals over 5 days): died
- mortality after 11 doses at the MND (BALB/c mice [3]; 10 BALB/c mice, 11 intraperitoneal doses of Pexiganan at the MND (32 mg/kg), 12 hour intervals over 5 days): 100%
- autopsy finding, peritoneal organs (BALB/c mice [3]; BALB/c mice, intraperitoneal doses at the MND at 12 hour intervals (Ω76 11 doses of 64 mg/kg over 5 days; Pexiganan 32 mg/kg until mortality)): intestinal inflammation is clearly visible
